Data from publication PMC12671775 (PLOS Genetics, 2025).

Assays:
[1] = target: T1, ChuaHNL (hydroxynitrile lyase, CHUA_005138) (Chamberlinius hualienensis, UniProt A0A0H5BR52); assay type: biochemical
T1 construct: N-terminal His-tagged, produced in Pichia pastoris

O=Cc1ccccc1 = assay: purified protein

Row | Compound | Km [1] | Km (O=Cc1ccccc1)
1 | N#CC(O)c1ccccc1 (racemic) [MAN, (R,S)-mandelonitrile] | 13.7 ± 2.35 mM | –
2 | ChuaHNL (hydroxynitrile lyase, CHUA_005138) (Chamberlinius hualienensis) | – | 4.31 ± 0.771 mM
